In PubChem BioAssay (NCI):
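Method: 48-hour compound exposure of cells in 96-well plates, five concentrations, linear interpolation of endpoints. GI50 is the concentration that inhibits growth by half. TGI is the concentration that stops growth completely.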

Legend:
Experiment in all cases: growth of human tumour cells (NCI), 48 h
MDA-MB-231 breast = tested on: MDA-MB-231 breast
HL-60(TB) leukemia = tested on: HL-60(TB) leukemia
SF-539 CNS = tested on: SF-539 CNS
CAKI-1 renal = tested on: CAKI-1 renal
NCI/ADR-RES ovarian = tested on: NCI/ADR-RES ovarian
OVCAR-8 ovarian = tested on: OVCAR-8 ovarian
UACC-62 melanoma = tested on: UACC-62 melanoma
NCI-H522 lung = tested on: NCI-H522 lung
HCC-2998 colon = tested on: HCC-2998 colon
MCF7 breast = tested on: MCF7 breast

Row | Compound | GI50 (MDA-MB-231 breast) [µM] | TGI (MDA-MB-231 breast) [µM] | GI50 (HL-60(TB) leukemia) [µM] | TGI (HL-60(TB) leukemia) [µM] | GI50 (SF-539 CNS) [µM] | TGI (SF-539 CNS) [µM] | GI50 (CAKI-1 renal) [µM] | TGI (CAKI-1 renal) [µM] | GI50 (NCI/ADR-RES ovarian) [µM] | TGI (NCI/ADR-RES ovarian) [µM] | GI50 (OVCAR-8 ovarian) [µM] | TGI (OVCAR-8 ovarian) [µM] | GI50 (UACC-62 melanoma) [µM] | TGI (UACC-62 melanoma) [µM] | TGI (NCI-H522 lung) [µM] | TGI (HCC-2998 colon) [µM] | GI50 (NCI-H522 lung) [µM] | GI50 (MCF7 breast) [µM] | TGI (MCF7 breast) [µM] | GI50 (HCC-2998 colon) [µM]
1 | Cc1cc(-c2nc3n(c2/C=N/N=C(N)N)CCS3)c(C)s1 | 13.4 | 27.1 | 36.9 | > 100 | 16.8 | 31.3 | 8.02 | 23.8 | 74.4 | > 100 | 32.6 | 63.4 | 12.9 | 25.5 | – | – | – | – | – | –
2 | O=C1NC2(CCCCC2)C2CCCCC=C12 (stereo not given) | – | – | – | > 100 | – | > 100 | – | > 100 | – | – | – | > 100 | – | > 100 | > 100 | – | – | – | – | –
3 | COc1cc([C@@H]2OC(=O)C3C2C(=O)O[C@H]3c2ccc(O)c(OC)c2)ccc1O (stereo not given in full) | – | – | – | – | – | > 100 | – | > 100 | – | – | – | > 100 | – | > 100 | – | > 100 | – | – | – | –
4 | O=C(COC(=O)c1cccc2c(=O)c3ccccc3[nH]c12)Nc1ccc(Cl)cc1 | – | – | – | > 100 | – | > 100 | – | > 100 | – | – | – | > 100 | – | > 100 | > 100 | > 100 | – | – | – | –
5 | Cc1cc(Cl)nc(N(CCCNc2ccnc3cc(Cl)ccc23)Cc2cccs2)n1 | 1.24 | 3.4 | – | – | 1.81 | 5.85 | – | – | 1.06 | 6.53 | 2.06 | 10.4 | 1.7 | 4.51 | 4.31 | 6.12 | 1.31 | 1.74 | 6.85 | 2.09
6 | O=C1CC(Cc2n[nH]c3c2CCCC3)CC(=O)N1 | – | > 100 | – | > 100 | – | > 100 | – | > 100 | – | > 100 | – | > 100 | – | > 100 | – | > 100 | – | – | > 100 | –
7 | COC(=O)c1ccc(NC(=O)c2ccc(NC3=C(Cl)C(=O)N(Cc4ccccc4)C3=O)cc2)cc1 | 19.7 | 34.7 | 12.8 | 25.4 | 20.7 | 39.4 | 2.49 | 6.4 | 14 | 27 | 11 | 24.7 | 18.7 | 37.1 | 33.1 | – | 13.1 | 7.16 | 41.3 | –
8 | COc1cccc2c(SCC(=O)Nc3ccccc3-c3ccccc3NC(=O)CSc3c4ccccc4nc4c(OC)cccc34)c3ccccc3nc12 | – | – | – | > 100 | – | > 100 | – | – | – | – | – | > 100 | – | > 100 | – | > 100 | – | – | – | –
9 | COc1ccc2c(CCCc3ccc(Cl)cc3Cl)c3[n+](cc2c1OC)CCc1cc2c(cc1-3)OCO2 | – | – | 0.23 | 0.838 | – | – | 5.1 | 23.7 | 7.74 | 54.2 | – | – | 0.284 | 1.38 | – | 1.95 | – | – | – | 0.638
10 | COC(=O)C12C34C=CC5(CCC6(C=CC1(CC3)O6)C52C(=O)OC)O4 (stereo not given) | – | – | – | > 100 | – | > 100 | – | > 100 | – | – | – | > 100 | – | – | > 100 | > 100 | – | – | – | –
11 | NC(=O)C(=O)C1C(=O)N(c2ccccc2)N=C1N (stereo not given) | – | – | – | > 100 | – | > 100 | – | > 100 | – | – | – | > 100 | – | > 100 | > 100 | > 100 | – | – | – | –
12 | CCn1cc(C(=O)N/N=C/c2cccs2)c(=O)c2cc(F)c(N3CCNC(C)C3)c(F)c21 (stereo not given) | 1.52 | 2.85 | – | – | 1.62 | 3.07 | 1.66 | 3.03 | 1.8 | 3.48 | – | – | 1.61 | 2.96 | – | 3.44 | – | – | – | 1.8
13 | COC(=O)c1ccc(C(=O)OC)c2nc3cc(Cl)ccc3nc12 | – | – | – | > 100 | – | > 100 | – | > 100 | – | – | – | > 100 | – | > 100 | > 100 | > 100 | – | – | – | –
14 | C[C@]12CC(C=O)C(=O)C(O)=C1CC[C@@H]1C2CC[C@@]2(C)C1CC[C@]2(C)O (stereo not given in full) | – | – | – | 41.5 | – | 35.1 | – | – | – | – | – | 89.9 | – | 36.5 | – | 31.1 | – | – | – | –
15 | C=CCC(N[C@H](CO)c1ccccc1)c1ccccn1 (stereo not given in full) | > 100 | > 100 | 38.6 | > 100 | > 100 | > 100 | > 100 | > 100 | > 100 | > 100 | > 100 | > 100 | > 100 | > 100 | > 100 | > 100 | > 100 | – | – | > 100
16 | CN(C)N=Nc1cccc(C(N)=O)c1 | – | – | – | > 100 | – | > 100 | – | > 100 | – | – | – | > 100 | – | – | – | > 100 | – | – | – | –
17 | CN(C)C(=S)/N=c1\ssc(=S)n1Cc1ccco1 | – | 84.2 | – | 8.2 | – | 7.66 | – | > 100 | – | – | – | > 100 | – | > 59.3 | 2.07 | > 100 | – | – | > 100 | –
18 | Cc1ccc(C)c(NC(=O)C(=O)C2C(=O)N(c3ccccc3)N=C2N)c1 (stereo not given) | – | – | – | > 100 | – | > 100 | – | > 100 | – | – | – | > 100 | – | > 100 | > 100 | > 100 | – | – | – | –
19 | CCCCCCCCC(C)CCCCCCCCC(=O)OCC(COP(=O)([O-])OCC[N+](C)(C)C)OC(=O)CCCCCCCCC(C)CCCCCCCC (stereo not given) | – | – | – | > 100 | – | – | – | > 100 | – | – | – | > 100 | – | > 100 | > 100 | > 100 | – | – | – | –
20 | C(=C\c1ccncc1)/c1ccncc1 | > 100 | > 100 | > 100 | > 100 | > 100 | > 100 | > 100 | > 100 | > 100 | > 100 | > 100 | > 100 | > 100 | > 100 | – | – | – | > 100 | > 100 | –
21 | COC(=O)C(=O)C(C(C)=O)C(=O)NCc1ccccc1 (stereo not given) | – | – | – | > 100 | – | > 100 | – | > 100 | – | – | – | > 100 | – | > 100 | > 100 | > 100 | – | – | – | –
